Laboratory results reported in patent US5418232A, “Diazabicycloalkene derivatives” (Daiichi Pharmaceutical Co., Ltd., priority 1992, dated 1995).

Columns and labels:
[1] = tested on: spontaneously hypertensive rats; test: Blood pressure fall after i.v. compound with or without glibenclamide pretreatment; assay type: in vivo, rat
Experimental: 2) Twenty-two-week-old male spontaneously hypertensive rats (body weight, 350-420 g) were given an intravenous injection of 30 mg/kg of glibenclamide (Sigma Chemical Company) having an antagonistic activity against potassium channel openers or, as a control, a solvent.

[2] = tested on: spontaneously hypertensive rats; test: Effect on renal blood flow (Doppler probe); assay type: in vivo, rat; details: for Increase in Renal Blood Flow 1 Hr after Administration: oral, dose which reduced blood pressure by about 50 mmHg; for activity in increasing the renal blood flow vs reference drug (in words): vs EMD57283
Experimental: Twenty-week-old male spontaneously hypertensive rats (body weight: 350-430 g) were anesthetized with pentobarbital (30 mg/kg, i.p.). An incision was made in the abdomen on the left side, and a Doppler probe for blood flow measurement was fitted to the left renal artery, and the code (wire lead) of the probe was passed under the back skin and taken out from the back of the neck. After 1 week from the operation, the code of the probe was connected to a Doppler blood flow meter to start measurement of the renal blood flow. After the renal blood flow reached to a steady state, a test compound was orally administered, and changes in renal blood flow were observed up to 9 hours. The test compound was used at a dose which reduced blood pressure by about 50 mmHg.

Acute toxicity = assay type: in vivo; details: mouse, in vivo, po
male mice = test: Acute toxicity; assay type: in vivo; details: oral 2 g/kg
[3] = tested on: spontaneously hypertensive rats; test: Antihypertensive activity in spontaneously hypertensive rats (oral, tail-cuff); assay type: in vivo, rat
Experimental: Male spontaneously hypertensive rats (16 to 20-week-old; body weight: 300-400 g) fed ab lib. were forceably given oral administration of a test compound suspended in 0.5% (w/v) carboxymethyl cellulose aqueous solution. After 1, 2, 4, 6, 8, 24, 30 or 48 hours from the administration, the systolic blood pressure was measured by a tail-cuff method described in Arzneimittel-Forschung, Vol. 18, pp. 1285-1287 (1968)).
The antihypertensive activity of the test compound was obtained as an effective dose for reducing blood pressure by 50 mmHg (ED50mmHg). Further, the time of onset of the maximum activity and the maximum increase in heart rate at a dose for reducing blood pressure by 50 to 60 mmHg were measured.
The statistical difference between a test compound and EMD57283 was analyzed by the Student's t-test.

[4] = dose reducing blood pressure by 50 to 60 mmHg

Row | Compound | Average Blood Pressure Fall ([1]; 1 Hr., 0.1 mg/kg i.v. + Glibenclamide 30 mg/kg i.v.) [mmHg] | Average Blood Pressure Fall ([1]; 1 Hr., 0.1 mg/kg i.v. + solvent) [mmHg] | Average Blood Pressure Fall ([1]; 2 Hrs., 0.1 mg/kg i.v. + Glibenclamide 30 mg/kg i.v.) [mmHg] | Average Blood Pressure Fall ([1]; 2 Hrs., 0.1 mg/kg i.v. + solvent) [mmHg] | Average Blood Pressure Fall ([1]; 3 Hrs., 0.1 mg/kg i.v. + Glibenclamide 30 mg/kg i.v.) [mmHg] | Average Blood Pressure Fall ([1]; 3 Hrs., 0.1 mg/kg i.v. + solvent) [mmHg] | Average Blood Pressure Fall ([1]; 4 Hrs., 0.1 mg/kg i.v. + Glibenclamide 30 mg/kg i.v.) [mmHg] | Average Blood Pressure Fall ([1]; 4 Hrs., 0.1 mg/kg i.v. + solvent) [mmHg] | potassium channel opening activity (in words) ([1]; conclusion from Table 6, glibenclamide antagonism) | Increase in Renal Blood Flow 1 Hr after Administration [2] [%] | activity in increasing the renal blood flow vs reference drug (in words) [2] | LD50 at 336 h (Acute toxicity) [mg/kg] | safety (in words) (male mice) | antihypertensive activity (in words) [3] | duration of activity (in words) [3] | ED (50 mmHg) ([3]; Rattus norvegicus, systolic blood pressure, read-out: ED50mmHg (effective dose for reducing blood pressure by 50 mmHg)) [mg/kg] | Max. increase of Heat Rate [3, 4] [%] | Time for Onset of Max. Activity [3, 4] [h]
1 | CC1(C)Oc2ccc(C#N)cc2[C@@H](OC2=NN(Cc3ccccc3)C(=O)C3CC23)[C@@H]1O (relative stereo) [Example 1, 3,4-trans-4-(3-Benzyl-2-oxo-3,4-diazabicyclo[4.1.0]hept-4-en-5-yloxy)-3,4-dihydro-2,2-dimethyl-3-hydroxy-2H-1-benzopyran-6-carbonitrile] | 15.9 ± 3.7 | 41.4 ± 6.1 | 22.0 ± 5.7 | 50.4 ± 4.4 | 28.0 ± 5.3 | 55.9 ± 4.3 | 26.9 ± 5.7 | 55.1 ± 4.7 | possesses potassium channel opening activity | 34.0 ± 6.1 | more potent activity in increasing the renal blood flow than the reference drug | > 2000 | highly safe |  |  |  |  | 
2 | CN1N=C(O[C@@H]2c3cc(C#N)ccc3OC(C)(C)[C@H]2O)C2CC2C1=O (relative stereo) [Example 2, 3,4-trans-3,4-dihydro-2,2-dimethyl-3-hydroxy-4-(3-methyl-2-oxo-3,4-diazabicyclo[4.1.0]hept-4-en-5-yloxy)-2H-1-benzopyran-6-carbonitrile] |  |  |  |  |  |  |  |  |  |  |  | > 2000 | highly safe |  |  |  |  | 
3 | CC1(C)Oc2ccc(C#N)cc2[C@@H](OC2=NN(Cc3ccccc3Cl)C(=O)C3CC23)[C@@H]1O (relative stereo) [Example 33, (3S,4R,1'R*,6'S*)-4-(3-(2-chlorobenzyl)-2-oxo-3,4-diazabicyclo[4.1.0]hept-4-en-5-yloxy)-3,4-dihydro-2,2-dimethyl-3-hydroxy-2H-1-benzopyran-6-carbonitrile] |  |  |  |  |  |  |  |  |  | 14.5 ± 4.0 | more potent activity in increasing the renal blood flow than the reference drug | > 2000 | highly safe | potent antihypertensive activity | long duration of activity | 0.031 | 19.4 ± 3.1 | 6.6 ± 0.5
